Reference: US20240109918A1, “HETEROCYCLIC COMPOUNDS AND USES THEREOF” (Kumquat Biosciences Inc., priority 2022, published 2024)

What was measured:
KRASwt = molecular target: T1, KRASwt (Homo sapiens, UniProt P01116); experiment: Bio-Biochem-PPI-HTRF Ras-SOS1 interaction assay (KRAS wt); assay type: biochemical; details: 5 nM
T1 construct: made in house; host or cells: E. coli BL21 (DE3)
How it was run: (§1)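 Compounds tested in duplicate (10 μM to 0.01 μM) for disruption of His-hSOS1 binding to GST-tagged wild-type or G12D K-Ras in HEPES pH 7.4 buffer. TR-FRET read (Eu donor, XL665 acceptor) after about 10 min or longer; IC50 derived from the 665/620 nm emission ratio.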

KRASG12D = molecular target: T2, KRASG12D (Homo sapiens, UniProt P01116, G12D); experiment: Bio-Biochem-PPI-HTRF Ras-SOS1 interaction assay (KRAS G12D); assay type: biochemical; details: 5 nM
T2 construct: made in house; host or cells: E. coli BL21 (DE3)
How it was run: as §1

T2 sequence (P01116 1-188 isoform P01116-2 G12D): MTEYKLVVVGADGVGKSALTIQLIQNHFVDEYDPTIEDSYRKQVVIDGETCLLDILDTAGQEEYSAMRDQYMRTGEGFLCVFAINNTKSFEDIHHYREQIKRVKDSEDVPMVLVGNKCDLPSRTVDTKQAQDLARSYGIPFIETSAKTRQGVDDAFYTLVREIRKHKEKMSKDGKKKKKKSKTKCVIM
T1 sequence (P01116 1-188 isoform P01116-2): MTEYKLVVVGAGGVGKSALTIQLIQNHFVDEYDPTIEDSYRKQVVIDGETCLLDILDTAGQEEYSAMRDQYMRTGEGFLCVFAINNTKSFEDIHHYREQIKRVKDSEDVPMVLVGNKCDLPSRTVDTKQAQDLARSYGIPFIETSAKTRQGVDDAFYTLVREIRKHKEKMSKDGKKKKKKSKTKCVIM

| IC50 (KRASwt) | IC50 (KRASG12D) | Compound |
| --- | --- | --- |
| < 5 µM | < 5 µM | CC(C)=C(C#N)C(=O)N1CC2(C1)CN(c1nc(OC[C@@]34CCCN3C[C@H](F)C4)nc3c(F)c(-c4ccc(F)c5sc(N)c(C#N)c45)c(Cl)cc13)CCO2 [compound 245, 2-amino-4-(6-chloro-4-(2-(2-cyano-3-methylbut-2-enoyl)-5-oxa-2,8-diazaspiro[3.5]nonan-8-yl)-8-fluoro-2-(((2R,7aS)-2-fluorotetrahydro-1H-pyrrolizin-7a(5H)-yl)methoxy)quinazolin-7-yl)-7-fluorobenzo[b]thiophene-3-carbonitrile] |
| < 5 µM | < 5 µM | N#Cc1c(N)sc2c(F)ccc(-c3c(Cl)cc4c(N5CCCC6(CN(C=O)C6)C5)nc(OC[C@@]56CCCN5C[C@H](F)C6)nc4c3F)c12 [compound 173, 2-amino-4-(6-chloro-8-fluoro-2-(((2R,7aS)-2-fluorotetrahydro-1H-pyrrolizin-7a(5H)-yl)methoxy)-4-(2-formyl-2,6-diazaspiro[3.5]nonan-6-yl)quinazolin-7-yl)-7-fluorobenzo[b]thiophene-3-carbonitrile] |
| < 5 µM | < 5 µM | C[C@H](Oc1nc(N2CCCC3(CN(C(=O)[C@@H]4C[C@H]4C#N)C3)C2)c2cc(Cl)c(-c3ccc(F)c4sc(N)c(C#N)c34)c(F)c2n1)[C@@H]1CCCN1C [compound 105, 2-amino-4-(6-chloro-4-(2-((1R,2R)-2-cyanocyclopropane-1-carbonyl)-2,6-diazaspiro[3.5]nonan-6-yl)-8-fluoro-2-((S)-1-((S)-1-methylpyrrolidin-2-yl)ethoxy)quinazolin-7-yl)-7-fluorobenzo[b]thiophene-3-carbonitrile] |
| < 5 µM | < 5 µM | N#Cc1c(N)sc2c(F)ccc(-c3c(Cl)cc4c(N5CCCCC6(CN(C(=O)C(F)Cl)C6)C5)nc(OC[C@@]56CCCN5C[C@H](F)C6)nc4c3F)c12 (stereo partly drawn) [compound 251, 2-amino-4-(6-chloro-4-(2-(2-chloro-2-fluoroacetyl)-2,6-diazaspiro [3.6]decan-6-yl)-8-fluoro-2-(((2R,7aS)-2-fluorotetrahydro-1H-pyrrolizin-7a(5H)-yl)methoxy)quinazolin-7-yl)-7-fluorobenzo[b]thiophene-3-carbonitrile] |
| < 5 µM | < 5 µM | COC1CN(C(=O)N2CC3(CCCN(c4nc(O[C@@H](C)[C@@H]5CCCN5C)nc5c(F)c(-c6ccc(F)c7sc(N)c(C#N)c67)c(Cl)cc45)C3)C2)C1 [compound 205, 2-amino-4-(6-chloro-8-fluoro-4-(2-(3-methoxyazetidine-1-carbonyl)-2,6-diazaspiro[3.5]nonan-6-yl)-2-((S)-1-((S)-1-methylpyrrolidin-2-yl)ethoxy)quinazolin-7-yl)-7-fluorobenzo[b] thiophene-3-carbonitrile] |
| < 5 µM | < 5 µM | N#Cc1c(N)sc2c(F)ccc(-c3c(Cl)cc4c(N5CCC6(CCN(C(=O)C7CC7(F)F)C6)CC5)nc(OC[C@@]56CCCN5C[C@H](F)C6)nc4c3F)c12 (stereo partly drawn) [compound 349, 2-amino-4-(6-chloro-4-(2-(2,2-difluorocyclopropane-1-carbonyl)-2,8-diazaspiro[4.5]decan-8-yl)-8-fluoro-2-(((2R,7aS)-2-fluorotetrahydro-1H-pyrrolizin-7a(5H)-yl)methoxy)quinazolin-7-yl)-7-fluorobenzo[b]thiophene-3-carbonitrile] |
| < 5 µM | < 5 µM | N#Cc1c(N)sc2c(F)ccc(-c3c(Cl)cc4c(N5CCCCC6(CN(C(=O)C7CCC7(F)F)C6)C5)nc(OC[C@@]56CCCN5C[C@H](F)C6)nc4c3F)c12 (stereo partly drawn) [compound 210, 2-amino-4-(6-chloro-4-(2-(2,2-difluorocyclobutane-1-carbonyl)-2,6-diazaspiro[3.6]decan-6-yl)-8-fluoro-2-(((2R,7aS)-2-fluorotetrahydro-1H-pyrrolizin-7a(5H)-yl)methoxy)quinazolin-7-yl)-7-fluorobenzo[b]thiophene-3-carbonitrile] |
| < 5 µM | < 5 µM | N#Cc1c(N)sc2c(F)ccc(-c3c(Cl)cc4c(N5CCCCC6(CN(C(=O)C7CCCN7)C6)C5)nc(OC[C@@]56CCCN5C[C@H](F)C6)nc4c3F)c12 (stereo partly drawn) [compound 314, 2-amino-4-(6-chloro-8-fluoro-2-(((2R,7aS)-2-fluorotetrahydro-1H-pyrrolizin-7a(5H)-yl)methoxy)-4-(2-prolyl-2,6-diazaspiro[3.6]decan-6-yl)quinazolin-7-yl)-7-fluorobenzo[b]thiophene-3-carbonitrile] |
| < 5 µM | < 5 µM | N#Cc1c(N)sc2c(F)ccc(-c3c(Cl)cc4c(N5CCCCC6(CN(C(=O)C7CC78CC8)C6)C5)nc(OC[C@@]56CCCN5C[C@H](F)C6)nc4c3F)c12 (stereo partly drawn) [compound 286, 2-amino-4-(6-chloro-8-fluoro-2-(((2R,7aS)-2-fluorotetrahydro-1H-pyrrolizin-7a(5H)-yl)methoxy)-4-(2-(spiro[2.2]pentane-1-carbonyl)-2,6-diazaspiro[3.6]decan-6-yl)quinazolin-7-yl)-7-fluorobenzo[b]thiophene-3-carbonitrile] |
| < 5 µM | < 5 µM | N#Cc1c(N)sc2c(F)ccc(-c3c(Cl)cc4c(N5CCCCC6(CN(C(=O)C(F)F)C6)C5)nc(OC[C@@]56CCCN5C[C@H](F)C6)nc4c3F)c12 [compound 317, 2-amino-4-(6-chloro-4-(2-(2,2-difluoroacetyl)-2,6-diazaspiro[3.6]decan-6-yl)-8-fluoro-2-(((2R,7aS)-2-fluorotetrahydro-1H-pyrrolizin-7a(5H)-yl)methoxy)quinazolin-7-yl)-7-fluorobenzo[b]thiophene-3-carbonitrile] |
| < 5 µM | < 5 µM | N#Cc1c(N)sc2c(F)ccc(-c3c(Cl)cc4c(N5CCOCC6(CN(C(=O)[C@@H]7CC7(F)F)C6)C5)nc(OC[C@@]56CCCN5C[C@H](F)C6)nc4c3F)c12 [compound 239, 2-amino-4-(6-chloro-4-(2-((S)-2,2-difluorocyclopropane-1-carbonyl)-6-oxa-2,9-diazaspiro[3.6]decan-9-yl)-8-fluoro-2-(((2R,7aS)-2-fluorotetrahydro-1H-pyrrolizin-7a(5H)-yl)methoxy)quinazolin-7-yl)-7-fluorobenzo[b]thiophene-3-carbonitrile] |
| < 5 µM | < 5 µM | N#Cc1c(N)sc2c(F)ccc(-c3c(Cl)cc4c(N5CCCCC6(CN(C(=O)CC78CC(F)(C7)C8)C6)C5)nc(OC[C@@]56CCCN5C[C@H](F)C6)nc4c3F)c12 [compound 282, 2-amino-4-(6-chloro-8-fluoro-4-(2-(2-(3-fluorobicyclo[1.1.1]pentan-1-yl)acetyl)-2,6-diazaspiro[3.6]decan-6-yl)-2-(((2R,7aS)-2-fluorotetrahydro-1H-pyrrolizin-7a(5H)-yl)methoxy)quinazolin-7-yl)-7-fluorobenzo[b]thiophene-3-carbonitrile] |
| < 5 µM | < 5 µM | NC(=O)N1CC2(CCN(c3nc(OC[C@@]45CCCN4C[C@H](F)C5)nc4c(F)c(-c5ccc(F)c6sc(N)nc56)c(Cl)cc34)CC2)C1 [compound 157, 7-(7-(2-amino-7-fluorobenzo [d]thiazol-4-yl)-6-chloro-8-fluoro-2-(((2R,7aS)-2-fluorotetrahydro-1H-pyrrolizin-7a(5H)-yl)methoxy)quinazolin-4-yl)-2,7-diazaspiro[3.5]nonane-2-carboxamide] |
| < 5 µM | ≥ 5 µM | CC1(C)CN(c2nc(OC[C@@]34CCCN3C[C@H](F)C4)nc3c(F)c(-c4ccc(F)c5sc(N)nc45)c(Cl)cc23)CC2(CN(C#N)C2)O1 [compound 180, 8-(7-(2-amino-7-fluorobenzo[d]thiazol-4-yl)-6-chloro-8-fluoro-2-(((2R,7aS)-2-fluorotetrahydro-1H-pyrrolizin-7a(5H)-yl)methoxy)quinazolin-4-yl)-6,6-dimethyl-5-oxa-2,8-diazaspiro[3.5] nonane-2-carbonitrile] |
| < 5 µM | < 5 µM | N#Cc1c(N)sc2c(F)ccc(-c3c(Cl)cc4c(N5CCOC6(CN(C(=O)[C@@H]7CC7(F)F)C6)C5)nc(OC[C@@]56CCCN5C[C@H](F)C6)nc4c3F)c12 [compound 217, 2-amino-4-(6-chloro-4-(2-((S)-2,2-difluorocyclopropane-1-carbonyl)-5-oxa-2,8-diazaspiro[3.5]nonan-8-yl)-8-fluoro-2-(((2R,7aS)-2-fluorotetrahydro-1H-pyrrolizin-7a(5H)-yl)methoxy)quinazolin-7-yl)-7-fluorobenzo[b]thiophene-3-carbonitrile] |
| < 5 µM | < 5 µM | N#Cc1c(N)sc2c(F)ccc(-c3c(Cl)cc4c(N5CCCCC6(CN(C(=O)C7(CN8CCOCC8)CC7)C6)C5)nc(OC[C@@]56CCCN5C[C@H](F)C6)nc4c3F)c12 [compound 278, 2-amino-4-(6-chloro-8-fluoro-2-(((2R,7aS)-2-fluorotetrahydro-1H-pyrrolizin-7a(5H)-yl)methoxy)-4-(2-(1-(morpholinomethyl)cyclopropane-1-carbonyl)-2,6-diazaspiro[3.6]decan-6-yl)quinazolin-7-yl)-7-fluorobenzo[b]thiophene-3-carbonitrile] |
| < 5 µM | < 5 µM | N#Cc1c(N)sc2c(F)ccc(-c3c(Cl)cc4c(N5CCCC6(CN(C(=O)N7CC(C#N)C7)C6)C5)nc(OC[C@@]56CCCN5C[C@H](F)C6)nc4c3F)c12 [compound 308, 1-(6-(7-(2-amino-3-cyano-7-fluorobenzo[b]thiophen-4-yl)-6-chloro-8-fluoro-2-(((2R,7aS)-2-fluorotetrahydro-1H-pyrrolizin-7a(5H)-yl)methoxy)quinazolin-4-yl)-2,6-diazaspiro[3.5]nonane-2-carbonyl)azetidine-3-carbonitrile] |
| < 5 µM | < 5 µM | Nc1nc2c(-c3c(Cl)cc4c(N5CCNC6(CNC6)C5)nc(OC[C@@]56CCCN5C[C@H](F)C6)nc4c3F)ccc(F)c2s1 [compound 116, 4-(6-chloro-8-fluoro-2-(((2R,7aS)-2-fluorotetrahydro-1H-pyrrolizin-7a(5H)-yl)methoxy)-4-(2,5,8-triazaspiro[3.5]nonan-8-yl)quinazolin-7-yl)-7-fluorobenzo[d]thiazol-2-amine] |
